Laboratory results from patent US11761966B2, “Nourin gene-based RNA molecular network: novel early diagnostic and prognostic biomarkers for coronary artery disease, unstable angina, STEMI/NSTEMI and heart failure” (Nour Heart, Inc., priority 2018, dated 2023).
“Also recorded” adds a separate entry of the source. Where no end group is shown, it is not given here. The star is where a group is joined. For = O=C*

Assays:
Nourin = conditions: in-vitro; cited from earlier work
Swine Flu H1N1 virus = conditions: mice inoculated with Swine Flu H1N1 virus; cited from earlier work
HF patients = conditions: small study, wide confidence intervals; cited from earlier work
[1] = system: patients with ST-Segment Elevation Myocardial Infarction; conditions: EMBRACE STEMI trial; cited from earlier work
rabbit skin = conditions: within the first 30 minutes, neutrophil infiltration; cited from earlier work
hearts in cold storage = experiment: Heart cold storage for 6 hours in HH solution (UW+CCrP) vs UW
Procedure: (§1) Furthermore, there was a higher weight gain in control hearts (UW) after 6 hours of cold storage compared to the CCrP-treated hearts (HH). […] The observed reduction of heart edema in the CCrP hearts (HH) is crucial for the restoration of contractile function during reperfusion at the end of 6-hour storage. […] Lewis rats were used for both the donors and recipients to avoid immunologic rejection. This approach allowed a focus at determining the in vivo cardioprotective benefits of CCrP treatment and to evaluate whether CCrP would restore cardiac contractility after prolonged cold storage and increase graft survival. Echocardiography (ECHO) analyses were conducted 2 hours after transplantation at day 0 and at day 3 before sacrifice.

mRNA-ANAPC11 = experiment: qPCR of Nourin RNA network in ISO rat model of HF: serum mRNA-ANAPC11 gene expression; type: in vivo; conditions: for reduction of mRNA-ANAPC11 gene expression: serum day 14
Procedure: (§2) The standard quantitative real time PCR (qPCR) molecular assay described in Example 6 was used to determine the levels of Nourin RNA network in the ISO rat model of ischemia-induced HF. It was tested if the hypothesis that the levels of gene expression of Nourin molecular RNA Network (miR-137, miRNA-106b, mRNA FTHL-17, mRNA ANAPC11 and lncR-CTB89H12.4) will be elevated in HF rats, and that CCrP treatment will reduce their gene expression of Nourin molecular RNA Network in a dose-response manner.
(§3) After 14 days, gene expression of Nourin-dependent miR-137 and miR-106b and their signaling pathways mRNA-FTLH-17, mRNA-ANAPC11 and lncR-CTB89H12.4 were evaluated by qRT-PCR (Example 6).

miR-106b = experiment: qPCR of Nourin RNA network in ISO rat model of HF: serum miR-106b gene expression; type: in vivo; conditions: for reduction of miR-106b gene expression: serum day 14
Procedure: as §2, §3

mRNA-FTHL-17 = experiment: qPCR of Nourin RNA network in ISO rat model of HF: serum mRNA-FTHL-17 gene expression; type: in vivo; conditions: for reduction of mRNA-FTHL-17 gene expression: serum day 14
Procedure: as §2, §3

miR-137 [2] = experiment: qPCR of Nourin RNA network in ISO rat model of HF: serum miR-137 gene expression; type: in vivo; conditions: for reduction of miR-137 gene expression: serum day 14, vs ISO/saline
Procedure: as §2, §3

rat grafted hearts = experiment: In vivo rat syngeneic abdominal heterotopic heart transplantation after 22-24 hours cold storage; conditions: after 22 and 24 hours of cold storage; control poor
Procedure: as §1
Saline-treated control donor rats were evidently dilated with an increase in the sizes of both ventricles and atria. Additionally, the color was mildly cyanotic and the contractility was poor and irregular in rhythm. In most control grafted hearts, their heart beating score ranged from 1+ to 2+ at day 0 and day 3. Protection was shown in most of CCrP grafted hearts at day 3 where the myocardial color and the consistency of the degree of contractility were almost the same as day zero. […] Most the control grafted hearts, on the other hand, continued to show evidence of ischemia as well as loss of wall thickness and cardiac mass by day 0 and day 3 (FIG. 43).

ISO rat model of HF = experiment: Standard isoproterenol (ISO) rat model of heart failure: CK-MB, ejection fraction, collagen, fibrosis, heart weight, physical activity; type: in vivo; parameters: heart weight: unit not given here; conditions: for Ejection Fraction (EF %) by ECHO: after 14 days
lncR-CTB89H12.4 = experiment: qPCR of Nourin RNA network in ISO rat model of HF: serum lncR-CTB89H12.4 gene expression; type: in vivo; conditions: for increase of lncR-CTB89H12.4 gene expression: serum day 14
Procedure: as §2, §3

[3] = Crossing of the blood-brain barrier
miR-137 [4] = conditions: spontaneously hypertensive rats; cited from earlier work

Procedure for healthy rats: After 14 days, ECHO analysis for Ejection Fraction (EF %) was conducted, as well as heart weight (mg), histologic analysis for fibrosis and deposition of collagen. Mean±S.E.M and one-way ANOVA analysis were used.

C/C=C/C[C@@H](C)[C@@H](O)[C@H]1C(=O)N[C@@H](CC)C(=O)N(C)CC(=O)N(C)[C@@H](CC(C)C)C(=O)N[C@@H](C(C)C)C(=O)N(C)[C@@H](CC(C)C)C(=O)N[C@@H](C)C(=O)N[C@H](C)C(=O)N(C)[C@@H](CC(C)C)C(=O)N(C)[C@@H](CC(C)C)C(=O)N(C)[C@H](C(C)C)C(=O)N1C [Cyclosporin H]
Nourin activity (Nourin): inhibited Nourin activity | lung inflammation (Swine Flu H1N1 virus): significantly reduced lung inflammation

elamipretide
left ventricular volumes (HF patients): reduce left ventricular volumes | primary or secondary outcomes [1]: did not improve the primary or secondary outcomes

Nourin: 3 KDa N-formyl peptide released by ischemic heart, inflammatory mediator (SEQ ID NO:15) (For-MIINHNLAAINSHRSPGADGNGGEAMPGGGR; listed as Homo sapiens)
inflammatory response in skin (rabbit skin): acute inflammatory response

Cyclocreatine Phosphate [CCrP]
heart weight after cold storage (hearts in cold storage; 6 hours cold storage, HH solution (UW+CCrP), control (UW) 0.31 gm): 0.25 gm | recovery of contractile function (hearts in cold storage; CCrP treated-group (HH) vs saline control): significantly better | reduction of mRNA-ANAPC11 gene expression (mRNA-ANAPC11; ISO/CCrP 0.4 g/kg): 18% | reduction of mRNA-ANAPC11 gene expression (mRNA-ANAPC11; ISO/CCrP 0.8 g/kg): 31% | reduction of mRNA-ANAPC11 gene expression (mRNA-ANAPC11; ISO/CCrP 1.2 g/kg): 70% | mRNA-ANAPC11 gene expression (Mean) (mRNA-ANAPC11; healthy rats, CCrP 0.8 g/kg, saline-treated healthy rats 1.0): 0.9 | reduction of miR-106b gene expression (miR-106b; ISO/CCrP 0.4 g/kg): 18% | reduction of miR-106b gene expression (miR-106b; ISO/CCrP 0.8 g/kg): 44% | reduction of miR-106b gene expression (miR-106b; ISO/CCrP 1.2 g/kg): 72% | miR-106b gene expression (Mean) (miR-106b; healthy rats, CCrP 0.8 g/kg, saline-treated healthy rats 4.62): 5.62 | reduction of mRNA-FTHL-17 gene expression (mRNA-FTHL-17; ISO/CCrP 0.4 g/kg): 16% | reduction of mRNA-FTHL-17 gene expression (mRNA-FTHL-17; ISO/CCrP 0.8 g/kg): 30% | reduction of mRNA-FTHL-17 gene expression (mRNA-FTHL-17; ISO/CCrP 1.2 g/kg): 75% | mRNA-FTHL-17 gene expression (Mean) (mRNA-FTHL-17; healthy rats, CCrP 0.8 g/kg, saline-treated healthy rats 1.01): 0.67 | myocardial fibrosis (Masson's trichrome) (healthy rats; control healthy rats, CCrP 0.8 g/kg/day, day 14): no fibrosis | toxicity in heart, liver and renal function (healthy rats; healthy rats, CCrP 0.8 g/kg daily for 14 days): no toxicity; also recorded: no observed toxic effect | levels of liver enzyme ALT, kidney Creatinine and Urea, CCrP vs saline (healthy rats; normal rats, CCrP 0.8 g/kg IP daily for 14 days): no significant difference; also recorded: no significance difference | heart weight (healthy rats; normal rats, CCrP 0.8 g/kg daily for 14 days): 0.6 | collagen % (healthy rats; normal rats, CCrP 0.8 g/kg daily for 14 days, control saline 0.1): 0.1% | Ejection Fraction (EF %) by ECHO (healthy rats; normal rats, CCrP 0.8 g/kg daily for 14 days, control saline 64): 61% | reduction of miR-137 gene expression (miR-137 [2]; ISO/CCrP 0.4 g/kg): 33% | reduction of miR-137 gene expression (miR-137 [2]; ISO/CCrP 0.8 g/kg): 75% | reduction of miR-137 gene expression (miR-137 [2]; ISO/CCrP 1.2 g/kg): 68% | miR-137 gene expression (Mean) (miR-137 [2]; healthy rats, CCrP 0.8 g/kg, saline-treated healthy rats 1.15): 1.60 | general overall survival of the cardiac tissue of grafted hearts (rat grafted hearts): very good to excellent | Ejection Fraction (EF %) by ECHO (ISO rat model of HF; ISO/CCrP 0.4 g/kg): 54% | collagen % (ISO rat model of HF; ISO/CCrP 0.4 g/kg, day 14): 3.3% | heart weight (ISO rat model of HF; ISO/CCrP 0.4 g/kg, day 14, ISO 0.8 mg, normal saline 0.6 mg): 0.7 | Serum CK-MB (ISO rat model of HF; ISO/CCrP 0.8 g/kg, 24 hours after last ISO injection, ISO 206.20±6.25, control saline 82.60±5.2): 70.67±5.79 U/L | heart weight (ISO rat model of HF; ISO/CCrP 0.8 g/kg, day 14): 0.6 | Ejection Fraction (EF %) by ECHO (ISO rat model of HF; ISO/CCrP 0.8 g/kg/day, ISO 36, control saline 64): 64% | myocardial fibrosis (Masson's trichrome) (ISO rat model of HF; ISO/CCrP 0.8 g/kg/day, day 14): very low fibrosis; also recorded: delicate fibrous tissue between the myocardial bundles, almost similar to healthy normal rats | collagen % (ISO rat model of HF; ISO/CCrP 0.8 g/kg/day, day 14, ISO/saline 4.1): 0.7% | Ejection Fraction (EF %) by ECHO (ISO rat model of HF; ISO/CCrP 1.2 g/kg): 59% | collagen % (ISO rat model of HF; ISO/CCrP 1.2 g/kg, day 14): 0.2% | heart weight (ISO rat model of HF; ISO/CCrP 1.2 g/kg, day 14): 0.7 | physical activity (ISO rat model of HF; ISO/CCrP group (n=5), day 14 before sacrifice): high physical activity | increase of lncR-CTB89H12.4 gene expression (lncR-CTB89H12.4; ISO/CCrP 0.4 g/kg): 1.33 fold | increase of lncR-CTB89H12.4 gene expression (lncR-CTB89H12.4; ISO/CCrP 0.8 g/kg): 7.66 fold | increase of lncR-CTB89H12.4 gene expression (lncR-CTB89H12.4; ISO/CCrP 1.2 g/kg): 14.33 fold | lncR-CTB89H12.4 gene expression (Mean) (lncR-CTB89H12.4; healthy rats, CCrP 0.8 g/kg, saline-treated healthy rats 1.1): 1.3 | crossing of the blood-brain barrier [3]: crosses blood brain barrier

C[C@H](CS)C(=O)N1CCC[C@H]1C(=O)O [captopril]
miR-137 expression (miR-137 [4]): inhibit miR-137 expression
